In patent publication US9302999B2, “Substituted triazoles as herbicides” (E. I. DU PONT DE NEMOURS AND COMPANY, priority 2012, dated 2016):

Assays:
Format in all cases: in vivo
[1] = test system: foxtail, giant (giant foxtail, Setaria faberii); assay: Test A pre-/postemergence: foxtail, giant
Summary of the method: (§1)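 Seeds were sown in loam/sand blend and sprayed preemergence (directed soil spray) and, simultaneously, postemergence at 2–10 cm, one- to two-leaf stage, using compounds in non-phytotoxic solvent with surfactant. After ~10 days in greenhouse, injury was rated visually versus untreated controls, 0 (no effect) to 100 (complete control).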

[2] = test system: barnyardgrass (Echinochloa crus-galli); assay: Test C flooded paddy test: barnyardgrass; conditions: scale 0 to 100 (0 no effect, 100 complete control)
Summary of the method: (§2)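 Rating: visual, 0–100 (100 = complete control), versus untreated controls after 13 to 15 greenhouse days. Treatment went into paddy water held at 3 cm over the soil, on plants grown to two leaves.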

[3] = test system: crabgrass, large (large crabgrass, Digitaria sanguinalis); assay: Test A pre-/postemergence: crabgrass, large
Summary of the method: as §1

rice (Oryza sativa) = assay: Test C flooded paddy test: rice; conditions: scale 0 to 100 (0 no effect, 100 complete control)
Summary of the method: as §2

[4] = test system: pigweed (Amaranthus retroflexus); assay: Test A pre-/postemergence: pigweed
Summary of the method: as §1

[5] = test system: barnyardgrass (Echinochloa crus-galli); assay: Test A pre-/postemergence: barnyardgrass
Summary of the method: as §1

corn (Zea mays) = assay: Test A pre-/postemergence: corn
Summary of the method: as §1

[6] = test system: sedge, umbrella (small-flower umbrella sedge, Cyperus difformis); assay: Test C flooded paddy test: sedge, umbrella; conditions: scale 0 to 100 (0 no effect, 100 complete control)
Summary of the method: as §2

[7] = test system: wheat (Triticum aestivum); assay: Test A pre-/postemergence: wheat
Summary of the method: as §1

[8] = test system: velvetleaf (Abutilon theophrasti); assay: Test A pre-/postemergence: velvetleaf
Summary of the method: as §1

[9] = test system: ducksalad (Heteranthera limosa); assay: Test C flooded paddy test: ducksalad; conditions: scale 0 to 100 (0 no effect, 100 complete control)
Summary of the method: as §2

[10] = test system: morningglory (Ipomoea spp.); assay: Test A pre-/postemergence: morningglory
Summary of the method: as §1

[11] = Postemergence, 1000 g ai/ha, visual rating on 0 to 100 scale (0 no effect, 100 complete control), approximately ten days
[12] = Preemergence, 1000 g ai/ha, 0 to 100 scale, 0 is no effect, 100 is complete control
[13] = Flood (flooded paddy test), 125 g ai/ha, visual rating after 13 to 15 days
[14] = Flood (flooded paddy test), 250 g ai/ha, visual rating after 13 to 15 days
[15] = Postemergence, 125 g ai/ha, 0 to 100 scale, 0 is no effect, 100 is complete control
[16] = Postemergence, 500 g ai/ha, visual rating on 0 to 100 scale (0 no effect, 100 complete control), approximately ten days
[17] = Preemergence, 125 g ai/ha, 0 to 100 scale where 0 is no effect and 100 is complete control
[18] = Preemergence, 500 g ai/ha, 0 to 100 scale (0 no effect, 100 complete control)

Cc1nn(-c2ccc(C(F)(F)F)cc2)nc1Cn1ccc(C(F)(F)F)n1 [Compound 117]
Foxtail, Giant plant response rating [1, 11]: 90
Foxtail, Giant plant response rating [1, 12]: 100
Plant response rating, Barnyardgrass [2, 13]: 65
Plant response rating, Barnyardgrass [2, 14]: 80
Plant response rating, Barnyardgrass ([2]; Flood, 31 g ai/ha): 50
Plant response rating, Barnyardgrass ([2]; Flood, 62 g ai/ha): 60
Crabgrass, Large plant response rating [3, 11]: 90
Crabgrass, Large plant response rating [3, 12]: 100
Plant response rating, Rice (rice (Oryza sativa); [13]): 25
Plant response rating, Rice (rice (Oryza sativa); [14]): 40
Plant response rating, Rice (rice (Oryza sativa); Flood, 31 g ai/ha): 15
Plant response rating, Rice (rice (Oryza sativa); Flood, 62 g ai/ha): 15
Pigweed plant response rating [4, 11]: 100
Pigweed plant response rating [4, 12]: 100
Barnyardgrass plant response rating [5, 11]: 80
Barnyardgrass plant response rating [5, 12]: 100
Corn plant response rating (corn (Zea mays); [11]): 40
Corn plant response rating (corn (Zea mays); [12]): 50
Plant response rating, Sedge, Umbrella [6, 13]: 75
Plant response rating, Sedge, Umbrella [6, 14]: 85
Plant response rating, Sedge, Umbrella ([6]; Flood, 31 g ai/ha): 65
Plant response rating, Sedge, Umbrella ([6]; Flood, 62 g ai/ha): 70
Wheat plant response rating [7, 11]: 20
Wheat plant response rating [7, 12]: 10
Velvetleaf plant response rating [8, 11]: 100
Velvetleaf plant response rating [8, 12]: 30
Plant response rating, Ducksalad [9, 13]: 80
Plant response rating, Ducksalad [9, 14]: 85
Plant response rating, Ducksalad ([9]; Flood, 31 g ai/ha): 30
Plant response rating, Ducksalad ([9]; Flood, 62 g ai/ha): 50
Morningglory plant response rating [10, 11]: 90
Morningglory plant response rating [10, 12]: 40

Cc1nn(-c2ccc(C(F)(F)F)cc2)nc1Oc1cccc(OC(F)(F)F)c1 [Compound 119]
Foxtail, Giant plant response rating [1, 15]: 20
Foxtail, Giant plant response rating [1, 16]: 60
Plant response rating, Foxtail, Giant [1, 17]: 50
Plant response rating, Foxtail, Giant [1, 18]: 100
Plant response rating, Barnyardgrass [2, 13]: 25
Plant response rating, Barnyardgrass [2, 14]: 30
Plant response rating, Barnyardgrass ([2]; Flood, 62 g ai/ha): 20
Crabgrass, Large plant response rating [3, 15]: 40
Crabgrass, Large plant response rating [3, 16]: 70
Plant response rating, Crabgrass, Large [3, 17]: 70
Plant response rating, Crabgrass, Large [3, 18]: 100
Plant response rating, Rice (rice (Oryza sativa); [13]): 25
Plant response rating, Rice (rice (Oryza sativa); [14]): 25
Plant response rating, Rice (rice (Oryza sativa); Flood, 62 g ai/ha): 15
Pigweed plant response rating [4, 15]: 70
Pigweed plant response rating [4, 16]: 100
Plant response rating, Pigweed [4, 17]: 60
Plant response rating, Pigweed [4, 18]: 100
Barnyardgrass plant response rating [5, 15]: 10
Barnyardgrass plant response rating [5, 16]: 20
Plant response rating, Barnyardgrass [5, 17]: 0
Plant response rating, Barnyardgrass [5, 18]: 30
Corn plant response rating (corn (Zea mays); [15]): 10
Corn plant response rating (corn (Zea mays); [16]): 30
Plant response rating, Corn (corn (Zea mays); [17]): 0
Plant response rating, Corn (corn (Zea mays); [18]): 0
Plant response rating, Sedge, Umbrella [6, 13]: 85
Plant response rating, Sedge, Umbrella [6, 14]: 85
Plant response rating, Sedge, Umbrella ([6]; Flood, 62 g ai/ha): 75
Wheat plant response rating [7, 15]: 0
Wheat plant response rating [7, 16]: 10
Plant response rating, Wheat [7, 17]: 0
Plant response rating, Wheat [7, 18]: 0
Velvetleaf plant response rating [8, 15]: 20
Velvetleaf plant response rating [8, 16]: 40
Plant response rating, Velvetleaf [8, 17]: 0
Plant response rating, Velvetleaf [8, 18]: 10
Plant response rating, Ducksalad [9, 13]: 80
Plant response rating, Ducksalad [9, 14]: 80
Plant response rating, Ducksalad ([9]; Flood, 62 g ai/ha): 50
Morningglory plant response rating [10, 15]: 20
Morningglory plant response rating [10, 16]: 70
Plant response rating, Morningglory [10, 17]: 0
Plant response rating, Morningglory [10, 18]: 10

FC(F)(F)c1ccc(-n2nc(Br)c(Cc3cccc(C(F)(F)F)c3)n2)cc1 [Compound 123]
Foxtail, Giant plant response rating [1, 11]: 60
Foxtail, Giant plant response rating [1, 12]: 80
Plant response rating, Barnyardgrass [2, 13]: 0
Plant response rating, Barnyardgrass [2, 14]: 0
Plant response rating, Barnyardgrass ([2]; Flood, 31 g ai/ha): 0
Plant response rating, Barnyardgrass ([2]; Flood, 62 g ai/ha): 0
Crabgrass, Large plant response rating [3, 11]: 80
Crabgrass, Large plant response rating [3, 12]: 60
Plant response rating, Rice (rice (Oryza sativa); [13]): 0
Plant response rating, Rice (rice (Oryza sativa); [14]): 10
Plant response rating, Rice (rice (Oryza sativa); Flood, 31 g ai/ha): 0
Plant response rating, Rice (rice (Oryza sativa); Flood, 62 g ai/ha): 0
Pigweed plant response rating [4, 11]: 100
Pigweed plant response rating [4, 12]: 80
Barnyardgrass plant response rating [5, 11]: 10
Barnyardgrass plant response rating [5, 12]: 10
Corn plant response rating (corn (Zea mays); [11]): 40
Corn plant response rating (corn (Zea mays); [12]): 0
Plant response rating, Sedge, Umbrella [6, 13]: 50
Plant response rating, Sedge, Umbrella [6, 14]: 75
Plant response rating, Sedge, Umbrella ([6]; Flood, 31 g ai/ha): 0
Plant response rating, Sedge, Umbrella ([6]; Flood, 62 g ai/ha): 0
Wheat plant response rating [7, 11]: 20
Wheat plant response rating [7, 12]: 0
Velvetleaf plant response rating [8, 11]: 100
Velvetleaf plant response rating [8, 12]: 10
Plant response rating, Ducksalad [9, 13]: 75
Plant response rating, Ducksalad [9, 14]: 75
Plant response rating, Ducksalad ([9]; Flood, 31 g ai/ha): 0
Plant response rating, Ducksalad ([9]; Flood, 62 g ai/ha): 40
Morningglory plant response rating [10, 11]: 100
Morningglory plant response rating [10, 12]: 0
